# How the values were obtained:
# MKNK1 = MKNK1 (Homo sapiens, UniProt Q9BUB5); assay: scanMAX kinase panel
# MERTK = target: T1, MERTK (Homo sapiens, UniProt Q12866); assay: scanMAX kinase panel
# T1 sequence (Q12866 21-999): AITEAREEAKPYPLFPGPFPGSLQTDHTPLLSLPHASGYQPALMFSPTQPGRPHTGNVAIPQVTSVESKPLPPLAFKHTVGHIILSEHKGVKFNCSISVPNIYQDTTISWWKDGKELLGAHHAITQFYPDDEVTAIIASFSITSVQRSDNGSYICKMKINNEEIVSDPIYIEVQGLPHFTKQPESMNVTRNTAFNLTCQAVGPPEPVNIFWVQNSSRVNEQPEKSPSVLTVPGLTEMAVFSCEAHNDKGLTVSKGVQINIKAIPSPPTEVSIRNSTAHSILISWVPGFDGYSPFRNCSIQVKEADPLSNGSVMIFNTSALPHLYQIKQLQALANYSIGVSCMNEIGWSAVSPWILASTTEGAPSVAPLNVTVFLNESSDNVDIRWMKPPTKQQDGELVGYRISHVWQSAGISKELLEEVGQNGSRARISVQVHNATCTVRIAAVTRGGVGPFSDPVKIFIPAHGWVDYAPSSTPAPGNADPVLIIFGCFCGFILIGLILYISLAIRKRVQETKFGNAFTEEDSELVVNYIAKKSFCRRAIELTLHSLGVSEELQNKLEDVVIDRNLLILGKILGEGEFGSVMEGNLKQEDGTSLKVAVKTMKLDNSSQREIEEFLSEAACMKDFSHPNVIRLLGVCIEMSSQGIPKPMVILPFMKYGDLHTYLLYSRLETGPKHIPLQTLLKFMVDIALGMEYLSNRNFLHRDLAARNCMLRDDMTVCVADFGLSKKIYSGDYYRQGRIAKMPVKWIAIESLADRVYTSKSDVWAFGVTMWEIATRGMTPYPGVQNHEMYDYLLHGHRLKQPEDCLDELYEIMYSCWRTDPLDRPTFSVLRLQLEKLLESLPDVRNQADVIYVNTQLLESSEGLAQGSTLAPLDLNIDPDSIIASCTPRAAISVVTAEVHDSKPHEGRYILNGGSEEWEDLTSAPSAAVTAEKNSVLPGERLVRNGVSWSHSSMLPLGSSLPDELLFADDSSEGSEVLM
# NTRK1 (TrkA) = NTRK1 (TrkA) (Homo sapiens, UniProt P04629); assay: TrkA PathHunter cell based kinase assay (activation by NGF); set-up: purchased DiscoveRx; details: activation by the ligand NGF; ten-point, 3.8 nM - 10 μM
# DDR2 = target: T2, DDR2 (Homo sapiens, UniProt Q16832); assay: scanMAX kinase panel
# T2 sequence (Q16832 22-855): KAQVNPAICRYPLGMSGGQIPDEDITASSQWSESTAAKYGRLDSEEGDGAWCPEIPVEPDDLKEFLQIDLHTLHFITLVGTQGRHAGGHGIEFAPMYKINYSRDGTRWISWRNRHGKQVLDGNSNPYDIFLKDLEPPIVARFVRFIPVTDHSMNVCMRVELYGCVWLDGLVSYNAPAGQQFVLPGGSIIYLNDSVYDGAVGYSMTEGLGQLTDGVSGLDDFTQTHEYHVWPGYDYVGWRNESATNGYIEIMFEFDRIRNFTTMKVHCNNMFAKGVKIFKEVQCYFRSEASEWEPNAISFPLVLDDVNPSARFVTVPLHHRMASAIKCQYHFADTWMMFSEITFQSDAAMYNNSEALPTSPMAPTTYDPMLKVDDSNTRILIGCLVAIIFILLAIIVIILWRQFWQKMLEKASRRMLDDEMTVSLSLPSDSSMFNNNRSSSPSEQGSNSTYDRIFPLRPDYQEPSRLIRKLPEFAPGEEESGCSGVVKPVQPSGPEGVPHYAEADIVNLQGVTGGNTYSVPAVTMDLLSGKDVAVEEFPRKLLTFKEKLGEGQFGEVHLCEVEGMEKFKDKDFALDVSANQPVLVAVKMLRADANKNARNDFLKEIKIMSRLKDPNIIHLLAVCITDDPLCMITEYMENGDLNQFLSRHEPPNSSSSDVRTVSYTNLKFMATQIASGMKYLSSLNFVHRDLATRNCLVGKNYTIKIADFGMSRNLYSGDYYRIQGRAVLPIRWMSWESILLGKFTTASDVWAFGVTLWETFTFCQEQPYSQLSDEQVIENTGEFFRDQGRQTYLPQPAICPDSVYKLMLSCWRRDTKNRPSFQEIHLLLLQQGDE
# CSF1R = CSF1R (Homo sapiens, UniProt P07333); assay: scanMAX kinase panel
# TEK (TIE2) = TEK (TIE2) (Homo sapiens, UniProt Q02763); assay: scanMAX kinase panel
# AXL = target: T3, AXL (Homo sapiens, UniProt P30530); assay: scanMAX kinase panel
# T3 sequence (P30530 26-894): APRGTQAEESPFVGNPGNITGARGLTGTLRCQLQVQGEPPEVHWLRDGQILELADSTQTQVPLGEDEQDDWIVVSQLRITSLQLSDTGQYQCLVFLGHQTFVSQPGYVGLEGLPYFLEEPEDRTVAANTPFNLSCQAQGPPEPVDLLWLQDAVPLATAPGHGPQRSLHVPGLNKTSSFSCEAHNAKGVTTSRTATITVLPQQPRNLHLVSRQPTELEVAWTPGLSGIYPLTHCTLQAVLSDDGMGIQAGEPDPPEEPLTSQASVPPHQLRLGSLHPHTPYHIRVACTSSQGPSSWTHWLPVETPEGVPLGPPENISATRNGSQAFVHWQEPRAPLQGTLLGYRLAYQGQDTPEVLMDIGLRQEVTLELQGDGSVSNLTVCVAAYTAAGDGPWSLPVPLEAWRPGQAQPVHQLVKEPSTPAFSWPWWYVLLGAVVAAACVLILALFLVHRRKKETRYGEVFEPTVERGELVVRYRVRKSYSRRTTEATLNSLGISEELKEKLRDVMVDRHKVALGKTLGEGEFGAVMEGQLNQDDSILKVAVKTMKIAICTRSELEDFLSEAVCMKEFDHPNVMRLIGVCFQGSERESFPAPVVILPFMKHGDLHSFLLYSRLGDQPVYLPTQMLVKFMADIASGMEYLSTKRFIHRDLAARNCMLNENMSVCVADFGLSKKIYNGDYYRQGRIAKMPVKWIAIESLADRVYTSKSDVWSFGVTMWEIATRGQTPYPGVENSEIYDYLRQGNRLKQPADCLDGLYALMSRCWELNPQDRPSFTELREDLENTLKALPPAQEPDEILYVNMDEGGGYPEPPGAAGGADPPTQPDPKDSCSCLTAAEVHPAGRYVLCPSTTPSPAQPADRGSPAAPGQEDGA
# Chain of NTRK1 (TrkA) (P04629 33-796): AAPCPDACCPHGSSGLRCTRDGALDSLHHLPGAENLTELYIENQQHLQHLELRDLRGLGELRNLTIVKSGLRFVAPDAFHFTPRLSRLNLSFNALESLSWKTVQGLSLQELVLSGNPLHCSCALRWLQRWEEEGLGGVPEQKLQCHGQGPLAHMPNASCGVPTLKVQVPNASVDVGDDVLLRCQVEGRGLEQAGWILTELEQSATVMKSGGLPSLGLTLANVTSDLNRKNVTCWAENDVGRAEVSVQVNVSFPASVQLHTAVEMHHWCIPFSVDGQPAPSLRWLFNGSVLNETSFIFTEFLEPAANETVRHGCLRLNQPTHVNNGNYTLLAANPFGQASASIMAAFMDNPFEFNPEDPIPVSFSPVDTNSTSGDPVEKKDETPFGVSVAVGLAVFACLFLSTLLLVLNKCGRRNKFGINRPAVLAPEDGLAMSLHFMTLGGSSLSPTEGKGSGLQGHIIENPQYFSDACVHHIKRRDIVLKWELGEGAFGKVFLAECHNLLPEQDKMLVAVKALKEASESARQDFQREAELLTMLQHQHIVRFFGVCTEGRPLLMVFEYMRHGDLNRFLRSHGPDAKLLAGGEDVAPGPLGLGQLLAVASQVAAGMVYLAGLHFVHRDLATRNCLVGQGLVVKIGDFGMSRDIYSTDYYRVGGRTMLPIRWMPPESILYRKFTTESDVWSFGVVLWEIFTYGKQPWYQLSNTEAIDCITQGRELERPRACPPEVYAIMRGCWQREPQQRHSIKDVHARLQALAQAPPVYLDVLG
# Chain of CSF1R (P07333 20-972): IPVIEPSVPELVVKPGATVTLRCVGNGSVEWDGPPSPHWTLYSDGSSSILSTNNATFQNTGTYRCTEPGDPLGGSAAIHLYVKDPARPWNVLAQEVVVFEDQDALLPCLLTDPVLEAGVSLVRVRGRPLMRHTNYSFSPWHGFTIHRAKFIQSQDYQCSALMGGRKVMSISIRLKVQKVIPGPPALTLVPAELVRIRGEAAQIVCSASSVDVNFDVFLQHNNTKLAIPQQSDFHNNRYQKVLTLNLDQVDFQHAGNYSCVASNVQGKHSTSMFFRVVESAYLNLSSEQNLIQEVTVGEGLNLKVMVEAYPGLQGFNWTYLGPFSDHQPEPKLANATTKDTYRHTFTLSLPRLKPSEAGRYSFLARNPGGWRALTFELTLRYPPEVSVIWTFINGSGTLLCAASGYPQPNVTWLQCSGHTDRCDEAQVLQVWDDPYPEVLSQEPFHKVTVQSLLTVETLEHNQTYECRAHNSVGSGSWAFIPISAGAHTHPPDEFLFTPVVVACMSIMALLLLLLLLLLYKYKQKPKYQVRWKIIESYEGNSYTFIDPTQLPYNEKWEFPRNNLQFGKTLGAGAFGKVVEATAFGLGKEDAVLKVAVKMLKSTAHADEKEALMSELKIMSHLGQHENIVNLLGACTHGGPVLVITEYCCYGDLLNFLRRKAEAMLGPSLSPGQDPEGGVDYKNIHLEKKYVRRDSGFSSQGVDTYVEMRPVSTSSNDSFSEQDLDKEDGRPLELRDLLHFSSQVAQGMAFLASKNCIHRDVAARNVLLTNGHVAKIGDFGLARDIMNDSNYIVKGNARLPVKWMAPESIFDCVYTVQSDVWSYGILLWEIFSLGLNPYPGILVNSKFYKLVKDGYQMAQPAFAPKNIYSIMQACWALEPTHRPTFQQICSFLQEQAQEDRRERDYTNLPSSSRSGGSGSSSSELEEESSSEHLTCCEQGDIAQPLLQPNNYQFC
# Chain of MKNK1 (Q9BUB5 whole entry): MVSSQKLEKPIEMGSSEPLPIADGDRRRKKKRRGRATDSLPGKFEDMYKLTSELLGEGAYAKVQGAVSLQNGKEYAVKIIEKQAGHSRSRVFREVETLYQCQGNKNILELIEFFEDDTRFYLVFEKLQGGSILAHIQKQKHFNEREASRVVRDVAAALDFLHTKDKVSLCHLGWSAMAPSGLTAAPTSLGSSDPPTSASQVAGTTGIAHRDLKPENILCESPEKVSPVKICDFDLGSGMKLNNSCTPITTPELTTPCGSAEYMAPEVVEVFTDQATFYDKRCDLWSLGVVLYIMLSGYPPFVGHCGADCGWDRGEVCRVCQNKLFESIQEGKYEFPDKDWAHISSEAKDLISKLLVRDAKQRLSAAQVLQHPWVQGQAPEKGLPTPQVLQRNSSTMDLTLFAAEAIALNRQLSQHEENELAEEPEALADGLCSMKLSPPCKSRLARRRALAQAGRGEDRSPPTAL
# Chain of TEK (TIE2) (Q02763 23-1124): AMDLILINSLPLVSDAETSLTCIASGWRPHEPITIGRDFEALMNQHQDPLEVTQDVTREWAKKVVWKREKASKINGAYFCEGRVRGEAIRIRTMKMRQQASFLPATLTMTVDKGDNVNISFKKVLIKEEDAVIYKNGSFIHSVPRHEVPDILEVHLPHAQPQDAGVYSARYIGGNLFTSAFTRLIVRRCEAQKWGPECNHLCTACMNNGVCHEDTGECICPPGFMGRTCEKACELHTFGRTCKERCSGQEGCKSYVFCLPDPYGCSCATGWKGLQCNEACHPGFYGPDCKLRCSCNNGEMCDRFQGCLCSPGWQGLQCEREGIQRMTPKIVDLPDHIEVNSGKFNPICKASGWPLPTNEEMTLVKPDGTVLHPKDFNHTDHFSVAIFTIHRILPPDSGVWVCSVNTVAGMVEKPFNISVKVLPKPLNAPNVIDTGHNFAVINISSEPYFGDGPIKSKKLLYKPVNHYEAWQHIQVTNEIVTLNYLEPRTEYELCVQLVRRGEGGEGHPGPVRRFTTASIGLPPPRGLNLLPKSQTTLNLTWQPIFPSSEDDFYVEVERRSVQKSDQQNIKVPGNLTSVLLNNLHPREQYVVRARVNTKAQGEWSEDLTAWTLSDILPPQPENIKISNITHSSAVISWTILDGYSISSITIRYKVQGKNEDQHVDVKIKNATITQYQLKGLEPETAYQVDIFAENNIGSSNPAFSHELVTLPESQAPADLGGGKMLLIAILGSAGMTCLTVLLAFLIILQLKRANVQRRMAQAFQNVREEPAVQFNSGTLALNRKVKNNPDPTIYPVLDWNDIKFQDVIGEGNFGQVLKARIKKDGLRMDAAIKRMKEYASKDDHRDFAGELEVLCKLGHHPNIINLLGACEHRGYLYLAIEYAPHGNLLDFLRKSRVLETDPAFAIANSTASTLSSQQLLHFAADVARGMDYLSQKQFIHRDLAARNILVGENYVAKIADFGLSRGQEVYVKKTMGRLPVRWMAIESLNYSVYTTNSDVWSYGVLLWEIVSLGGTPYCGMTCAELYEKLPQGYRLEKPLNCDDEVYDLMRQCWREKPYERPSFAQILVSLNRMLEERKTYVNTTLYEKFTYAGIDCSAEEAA
"% Inhibition at 0.2 μM, MKNK1 (MKNK1) [%]","% Inhibition at 0.2 μM, MERTK (MERTK) [%]",IC50 (NTRK1 (TrkA)) [nM],"% Inhibition at 0.2 μM, DDR2 (DDR2) [%]","% Inhibition at 0.2 μM, CSF1R (CSF1R) [%]","% Inhibition at 0.2 μM, TEK (TIE2) (TEK (TIE2)) [%]","% Inhibition at 0.2 μM, AXL (AXL) [%]",Compound,"inhibition at 0.2 µM (MKNK1; read-out: % Inhibition at 0.2 μM, MKNK1) [%]","inhibition at 0.2 µM (MERTK; read-out: % Inhibition at 0.2 μM, MERTK) [%]","inhibition at 0.2 µM (AXL; read-out: % Inhibition at 0.2 μM, AXL) [%]"
70,99,12,94,98,100,99,Cc1ccc(C(=O)Nc2ccc(Oc3cc4cn[nH]c4cc3-c3cn[nH]c3)c(F)c2)c(=O)n1-c1ccc(F)cc1 [M1],–,–,–
62,93,92,99,97,100,100,Cn1ncc2cc(Oc3ccc(NC(=O)c4ccc(CO)n(-c5ccc(F)cc5)c4=O)cc3F)c(-c3cn[nH]c3)cc21 [M2],–,–,–

Compound,"% Inhibition at 0.2 μM, MKNK1 (MKNK1) [%]","% Inhibition at 0.2 μM, MERTK (MERTK) [%]",IC50 (NTRK1 (TrkA)) [nM],"% Inhibition at 0.2 μM, DDR2 (DDR2) [%]","% Inhibition at 0.2 μM, CSF1R (CSF1R) [%]","% Inhibition at 0.2 μM, TEK (TIE2) (TEK (TIE2)) [%]","% Inhibition at 0.2 μM, AXL (AXL) [%]","inhibition at 0.2 µM (MKNK1; read-out: % Inhibition at 0.2 μM, MKNK1) [%]","inhibition at 0.2 µM (MERTK; read-out: % Inhibition at 0.2 μM, MERTK) [%]","inhibition at 0.2 µM (AXL; read-out: % Inhibition at 0.2 μM, AXL) [%]"
Cc1ccc(C(=O)Nc2ccc(Oc3cc4cnn(C)c4cc3-c3cn[nH]c3)c(F)c2)c(=O)n1-c1ccc(F)cc1 [Merestinib],–,–,17,97,97,99,–,56,96,100

# — PMC5862616 (Oncotarget, 2018)
